Data set [1] can be described thus: Thioether stapling in folded myoglobin: Cys thiol SN2 on the chloroacetamide of genetically encoded p-chloroacetamido-Phe (pCaaF), loss of HCl; spontaneous during E. coli expression (27 °C overnight) and purification, then overnight incubation at pH ~8.5. The settings on record: the molecule shown is the open-chain precursor, aqueous (E. coli cytosol, then KPi buffer adjusted to pH ~8.5), other, scale: % stapled.

Data set [2] in a line: Thioether stapling in folded myoglobin: Cys thiol SN2 on the bromoethyl ether of genetically encoded O-2-bromoethyl tyrosine (O2beY), loss of HBr. The settings on record: the molecule shown is the open-chain precursor, aqueous (E. coli expression), other, scale: 1 = efficient/successful stapling, 0.5 = partial, 0 = failed, cited from earlier work.

These results are taken from PMC9178789.

Consider “sperm whale Mb(H64V,V68A) + D20S, G23C, D27A, R118pCaaF”, for which, in data set [1] (296-membered ring), the ring closure, conversion by HPLC was 100.

As to “sperm whale Mb(H64V,V68A) + D27pCaaF, H113C, V114G”, the ring closure, conversion by HPLC in data set [1] (269-membered ring) came to 100.

Take “sperm whale Mb(H64V,V68A) + G5O2beY, D126C”: in data set [2] (374-membered ring), the ring closure, product found was 1.

For the substance “sperm whale Mb(H64V,V68A) + G5pCaaF, D126C”, in data set [1] (374-membered ring), the ring closure, conversion by HPLC amounted to 100.

For the substance “sperm whale Mb(H64V,V68A) + G5pCaaF, H36pCaaF, E109C, D126C”, the ring closure, conversion by HPLC in data set [1] came out at 100.

In data set [1], “sperm whale Mb(H64V,V68A) + G5pCaaF, H36pCaaF, E109C, H113E, D126C” registered a ring closure, conversion by HPLC of 100.

With “sperm whale Mb(H64V,V68A) + H36O2beY, E109C”, the ring closure, product found in data set [2] (230-membered ring) is 1.

“sperm whale Mb(H64V,V68A) + H36pCaaF, E109C”: the ring closure, conversion by HPLC in data set [1] (230-membered ring) stood at 78.

For “sperm whale Mb(H64V,V68A) + K16C, H119A, G121O2beY, D122S”, the ring closure, product found in data set [2] (326-membered ring) was 0.

Regarding “sperm whale Mb(H64V,V68A) + K16C, H119A, G121pCaaF, D122S”, the ring closure, conversion by HPLC in data set [1] (326-membered ring) stood at 60.

Regarding “sperm whale Mb(H64V,V68A) + L9R, H12C, D122T, A127O2beY”, in data set [2] (356-membered ring), the ring closure, product found is 1.

For the substance “sperm whale Mb(H64V,V68A) + L9R, H12C, D122T, A127pCaaF”, the ring closure, conversion by HPLC in data set [1] (356-membered ring) is 100.

In the case of “sperm whale Mb(H64V,V68A) + R31O2beY, S35K, E109C”, the ring closure, product found in data set [2] (245-membered ring) is 0.

As to “sperm whale Mb(H64V,V68A) + R31pCaaF, S35K, E109C”, the ring closure, conversion by HPLC in data set [1] (245-membered ring) turned out to be 100.
